Reference: patent US20170128489A1 (priority 2014, published 2017)
Like-named read-outs stand apart in the source and are kept apart here.

Assays:
[1] = molecular target: influenza A M2 channels (A/Udorn/72, S31N mutant) (Influenza A virus, UniProt P0DOF5, S31N); format: cell-based; settings: for Percent Block / EC50: pH 5.3
[2] = system: influenza A (S31N), A/California/07/2009; format: cell-based, Influenza A virus
[3] = molecular target: M2 (22-62, S31N) (Influenza A virus, UniProt P0DOF5, S31N); format: biochemical
[4] = system: influenza A (S31N), A/California/07/2009; format: cell-based, Influenza A virus; remark: listed apart in the source
[5] = molecular target: M2 22-62 peptide, mutant A/Udorn/72 S31N (Influenza A virus, UniProt P0DOF5, S31N); format: biochemical

Compound | Percent Washout [1] | Percent Block [1] | % Block [2] | EC50 [2] | % Block [3] | % Block [4] | EC50 [4] | Mutant Percent Block [5] | Mutant w/ Compound Proton Flux [5] | EC50 [3] | EC50 [1]
Copper N-(1-cyclooctyl)iminoacetate acetylacetonate [CO-IMA-Cu-ACAC] | 16% | 73% | 65.7% | 13.1 µM |  |  |  |  |  |  | 
Cobalt bisethylenediamine pinanamine imidazole [Pin-Imid-Co-Bis(en)] |  | No Block | 65.6% | 13.1 µM |  |  |  |  |  |  | 
Copper N-(1-adamantyl)iminoacetate acetylacetonate [Amt-IMA-Cu-ACAC] | 58% | 65% |  |  | 96% | 97% | 2.91 µM |  |  |  | 
O=C(O)CN(CC(=O)O)C1CCCCCCC1.[Zn] [CO-IDA-Zn, Zinc cyclooctyliminodiacetic acid] | 80% | 32% | 61.5% |  |  |  |  | 76.29% | 13.21 H^+/sec/channel |  | 
NCCNCCN.[Cl][Cu][Cl] [Cu(dien)Cl2, reference compound] |  |  |  |  |  | 66% | 51.6 µM |  |  |  | 
O=C(O)CN(CC(=O)O)C1CCCCCCC1 [CO-IDA, Cylcooctyliminodiacetic acid] |  | No Block |  |  |  |  |  |  |  |  | 
Copper cyclooctylimidodiacetamide [CO-IDAm-Cu] | 10% | 86% | 60.2% | 33.5 µM |  |  |  |  |  |  | 
O=C(O)CN(CC(=O)O)C1CCCCCCC1.[Cu] [CO-IDA-Cu, Copper cyclooctyliminodiacetic acid] | 94% | 26% | 62.2% | 30.3 µM |  |  |  | 75.75% | 12.89 H^+/sec/channel |  | 
CC(=O)[O][Zn]1[O]C(=O)C[N]1C1CCCCCCC1 [CO-IMA-Zn, Zinc cyclooctylaminoacetic acid] | 93% | 42% | 79.8% | 12.6 µM |  |  |  |  |  |  | 
[Cl][Cu][Cl] [CuCl2, reference compound] |  |  |  |  | 94% | 63% | 57.2 µM |  |  | 6.1 µM | 
O=C(O)CN(CC(=O)O)C12CC3CC(CC(C3)C1)C2.[Cu] [Amt-IDA-Cu, Copper N-(1-adamantyl)-iminodiacetic acid] |  |  |  |  | 82% | 82% | 21.8 µM |  |  |  | 
Copper pinanamine imidazole [Pin-Imid-Cu] |  |  | 71.6% |  |  |  |  |  |  |  | 
Zinc cyclooctylimidodiacetamide [CO-IDAm-Zn] | 74% | 42% | 54% | 21.3 µM |  |  |  |  |  |  | 
CC(=O)[O-].CC(=O)[O-].[Cu+2] [Cu(Acetate)2, reference compound] | 4% | 70% | 38% | 40.8 µM |  |  |  | 67.23% | 17.85 H^+/sec/channel |  | 74 µM
O=C1C[N](C2CCCCCCC2)[Cu]2([O]1)[O]C(=O)C[N]2C1CCCCCCC1 [Bis(CO-IMA)-Cu, Copper biscyclooctyl iminomonoacetic acid] | 11% | 81% | 66.4% | 25.3 µM |  |  |  | 70.38% | 16.95 H^+/sec/channel |  | 
NC(=O)CN(CC(N)=O)C1CCCCCCC1 [CO-IDAm, Cyclooctylimidodiacetamide] | 100% | 17% |  |  |  |  |  |  |  |  | 
Cobalt Biscyclooctylimidodiacetic acid [Bis(CO-IDA)-Co] | 89% | 28% | 50.6% | 24.4 µM |  |  |  |  |  |  | 240 µM
